Tests used:
N. elongata = assay: Bacterial survival assay (3 h), CFU counts; assay type: cell-based, Neisseria elongata
Method: (§1) Bacterial Survival Assay (3 h)
(§2) To measure bacterial survival (FIGS. 2 and 4), different bacteria were exposed to various concentrations of the compounds (as indicated) in their specific growth media (see the culture conditions above) for 3 h at 37° C. To perform this assay, all strains were grown overnight in their corresponding agar media. Cell-suspension corresponding to an OD600=0.05 were subsequently prepared. In parallel, fresh stock DMSO solutions of the compounds were prepared (100×, with final concentrations being indicated in the different figures) and 1.8 μL of the corresponding solutions were added per well of 96-well plates. In each well, 178.2 μL of bacterial suspension were subsequently added. Bacteria were allowed to grow during […] at 37° C. with 5% CO2. After incubation, serial dilutions (until 10^−6) were performed and 50 μL of each diluted solution were spread on agar plates. After an overnight incubation at 37° C. with/without 5% CO2, CFU were enumerated. All these assays were performed at least in triplicates.
(§3) To verify if the toxicity of BPh4^− is specific to the Neisseria genus, the percentage of survival of several Neisseria species was assessed after treatment with 50 μM of NaBPh4^− for 3 h (FIG. 4A). […]

[1] = test system: N. gonorrhoeae (LNP16626); assay: Bacterial survival assay (3 h), CFU counts; assay type: cell-based, Neisseria gonorrhoeae
Method: as §1, §2
(§4) Therefore, the bactericidal activity was assessed for the 4 compounds harboring a BPh4^− identified from the initial screen described above (AnIII-7, AnIII-6, AnII-18, NaBPh4). N. meningitidis was treated with 50 μM of each compound and the % survival cells (compared with DMSO 1% control) was measured using serial dilutions and CFU counts. […] To verify if the bactericidal effect could be observed for the other pathogen of the Neisseria family, a clinical isolate of. N. gonorrhoeae (LNP16626 [3]) was also treated with 50 μM of the same compounds, respectively, using the same assay.
(§5) The MBC (minimum bactericidal concentration that kill >99.999%), the concentration necessary to completely abrogate bacterial survival after a 3 h exposure to NaBPh4, was next assessed.

[2] = Toxicity of NaBPh4 in mice; assay type: in vivo, Balb/c mice; details: mice treated with NaBPh4 (IV or IP)
Method: (§6) The strain LNP 24198 of Neisseria meningitidis expressing the luxCDABE gene under the control of the porBp promoter was used. Three groups, with five seven-week-old Balb/c mice each, were infected with luminescent Neisseria meningitidis. For this, 200 μL of bacterial cultures at OD600nm of 0.1 (5×10^7 cells/mL) mixed with 150 μL of human transferrin (20 mg/mL) was injected in each mouse. Two hours later, one group was treated with 100 μL of NaBPh4 (20 μM) injected into the tail veins by intravenous injection (IV), and one group was treated with the same dose injected by intraperitoneal injection (IP). The remaining five were treated with 100 μL of DMSO as controls. NaBPh4 was initially prepared at 20 mM in DMSO before being diluted into PBS to reach a final concentration of 20 μM (with 0.1% DMSO). DMSO was diluted in PBS in the same manner to achieve 1:1000. To test a possible toxicity of NaBPh4, one group of 5 non-infected mice was treated with 100 μL of DMSO (IP) and two groups with 100 μL NaBPh4 (IV or IP). Luminescence was then measured, on the front and back of the mice, at different time points (0, 4, 8, 24 and 48 hours post-infection). The light signal was determined for each mouse using the ROI (Region Of Interest) tool of the IVIS Lumina Ill.
(§7) The effect of NaBPh4 administration in a murine model of N. meningitidis infection was assessed.

N. meningitidis = assay: Bacterial survival assay (3 h), CFU counts; assay type: cell-based, Neisseria meningitidis
Method: as §1, §2, §4, §5

[3] = test system: N. meninigitidis (LNP24198) expressing luciferase (LuxABCDE); assay: N. meningitidis luminescent strain growth assay (16 h); assay type: cell-based, Neisseria meningitidis
Method: N. meningitidis Luminescent Strain Growth Assay (16 h)
To perform the library screening (FIG. 1) or to compare the activity of the different boron-containing salts (FIG. 3), the amount of light produced after 16 h of growth for N. meningitidis luminescent strain was measured. Contrarily to optical density (OD) readings which can be misleading due to the absorbance of dead cells, this measurement is directly correlated to the number of live cells, as the half-life of the luciferase and its substrate are limited and that the emission of light is therefore not subsisting after the death of the cells. To perform this assay, N. meninigitidis (LNP24198) expressing luciferase (LuxABCDE) was grown overnight under the control of the constitutive promoter porBp in GCB agar media, and a cell-suspension corresponding to an OD600=0.01 was subsequently prepared. In parallel, fresh stock DMSO solutions of the compounds were prepared (100×, with final concentrations being indicated in the different figures) and 1.8 μL of the corresponding solutions were added per well of 96-well plates. In each well, 178.2 μL of bacterial suspension were subsequently added. Bacteria were allowed to grow during 16 h at 37° C. with 5% CO2. The emitted light was measured using a 96-well plate luminometer (PerkinElmer Wallac 1420 Victor^3) and results are expressed in relative light unit (RLU). All these assays were performed at least in triplicates.
To screen molecules for their antibacterial activity, a luminescent system was used, as previously described for other bacteria. A clinical isolate of N. meninigitidis (LNP24198) expressing luciferase (LuxABCDE) under the control of the constitutive promoter porBp was used, as similarly described, located in the intergenic region next to NMB1732. More than 2400 compounds from different origins were screened to identify candidates with the ability to inhibit the growth of N. meningitidis after 16 h at 37° C. […] It is noteworthy that stock solutions for all tested compounds were prepared in DMSO and that the final DMSO concentration of the tested solutions was kept at 1%, a concentration which has proven not to affect the growth of N. meningitidis (FIG. 1A). […] An investigation of the effect of the BPh4^− moiety was then pursued.
To exclude any salt-specific effect, the effect of several BPh4^− and BF4^− salts on the growth of N. meningitidis luminescent strain was tested. The growth of N. meningitidis was measured after a 16 h-exposure to different concentrations of various BPh4^− and BF4^− salts. From this assay, the MIC (minimum inhibitory concentration, the lowest concentration that prevents visible bacterial growth, <800 RLU) was calculated. All BPh4 salts tested (sodium, ammonium and potassium) were all highly toxic for N. meningitidis.
Several borate compounds were prepared and their ability to inhibit N. meningitidis growth was assessed using the luminescent system described at Example 2.

Staphylococcus aureus = assay: Bacterial survival assay (3 h), CFU counts; assay type: cell-based; details: 50 μM, compared with N. meningitidis and N. gonorrhoeae
Method: as §1, §2
(§8) To verify if the toxicity of BPh4^− is specific to the Neisseria genus, the percentage of survival of several Neisseria species was assessed after treatment with 50 μM of NaBPh4^− for 3 h (FIG. 4A). […] Other Gram-negative species such as Yersinia enterocolitica and Citrobacter rodentium (order Enterobacterales) or Moraxella catarrhalis (order Pseudomonadeles), but also Gram-positive species such as Staphylococcus aureus and Actinobacteria with M. smegmatis, were also tested.

Yersinia enterocolitica = assay: Bacterial survival assay (3 h), CFU counts; assay type: cell-based; details: 50 μM, compared with N. meningitidis and N. gonorrhoeae
Method: as §1, §2, §8

Moraxella catarrhalis = assay: Bacterial survival assay (3 h), CFU counts; assay type: cell-based; details: 50 μM, compared with N. meningitidis and N. gonorrhoeae
Method: as §1, §2, §8

M. smegmatis = assay: Bacterial survival assay (3 h), CFU counts; assay type: cell-based; details: 50 μM, compared with N. meningitidis and N. gonorrhoeae
Method: as §1, §2, §8

Citrobacter rodentium = assay: Bacterial survival assay (3 h), CFU counts; assay type: cell-based; details: 50 μM, compared with N. meningitidis and N. gonorrhoeae
Method: as §1, §2, §8

[4] = test system: N. meningitidis (strain LNP 24198, luminescent); assay: Mice infection with luminescent N. meningitidis; assay type: in vivo, Balb/c mice; details: IV or IP administration 2 h after infection, 24 h and 48 h post-infection, relative to vehicle (DMSO)
Method: as §6, §7

N. sicca = assay: Bacterial survival assay (3 h), CFU counts; assay type: cell-based, Neisseria sicca; details: 50 μM, compared with N. meningitidis and N. gonorrhoeae
Method: as §1, §2, §3

N. lactamica = assay: Bacterial survival assay (3 h), CFU counts; assay type: cell-based, Neisseria lactamica
Method: as §1, §2, §3

[5] = 50 μM, 3 h, compared with N. meningitidis and N. gonorrhoeae

SMILES: [Na+].c1ccc([B-](c2ccccc2)(c2ccccc2)c2ccccc2)cc1 [Compound 1, Sodium tetraphenylborate]
- survival of N. elongata (N. elongata; [5]): less sensitive
- MBC (minimum bactericidal concentration that kill >99.999%) (N. elongata; N. elongata, 3 h exposure): higher than 200 μM
- survival of N. gonorrhoeae ([1]; 50 μM, 3 h, CFU counts): no viable cells were detected
- MBC (minimum bactericidal concentration that kill >99.999%) ([1]; N. gonorrhoeae, 3 h exposure): 7.5 µM
- sign of toxicity in mice [2]: No apparent sign of toxicity
- survival of N. meningitidis (N. meningitidis; 50 μM, 3 h, CFU counts vs DMSO 1% control): the detection of any live bacteria was not possible
- MBC (minimum bactericidal concentration that kill >99.999%) (N. meningitidis; N. meningitidis, 3 h exposure): 18 µM
- inhibition of the growth of N. meningitidis (library screening) ([3]; 100 μM, 16 h at 37° C., 1% DMSO): active
- MIC ([3]; Neisseria meningitidis, 16 h): 15 µM
- survival of Staphylococcus aureus (Staphylococcus aureus): significantly more resistant
- survival of Yersinia enterocolitica (Yersinia enterocolitica): significantly more resistant
- survival of Moraxella catarrhalis (Moraxella catarrhalis): significantly more resistant
- survival of M. smegmatis (M. smegmatis): significantly more resistant
- survival of Citrobacter rodentium (Citrobacter rodentium): significantly more resistant
- N. meningitidis bacterial load (luminescence) [4]: significantly reduces
- survival of N. sicca (N. sicca): less sensitive
- survival of N. lactamica (N. lactamica; [5]): not as sensitive
- MBC (minimum bactericidal concentration that kill >99.999%) (N. lactamica; N. lactamica, 3 h exposure): higher than 200 μM
